From patent US20220267308A1, “Modulators of Excitatory Amino Acid Transporters and Methods Using Same” (The Wistar Institute of Anatomy and Biology, priority 2019, published 2022)
Read-outs that look alike come from different tables or passages of the source.

Key:
EAAT1 = target: T1, EAAT1 (Homo sapiens, UniProt P43003); test: glutamate uptake mediated by EAAT1-expressing COS-7 cells; format: cell-based; settings: for EAAT1 Efficacy: bottom number of the cell
T1 construct: expressed in transfected cells; host or cells: COS-7
T1 sequence (P43003 whole entry, the tested form may be a part): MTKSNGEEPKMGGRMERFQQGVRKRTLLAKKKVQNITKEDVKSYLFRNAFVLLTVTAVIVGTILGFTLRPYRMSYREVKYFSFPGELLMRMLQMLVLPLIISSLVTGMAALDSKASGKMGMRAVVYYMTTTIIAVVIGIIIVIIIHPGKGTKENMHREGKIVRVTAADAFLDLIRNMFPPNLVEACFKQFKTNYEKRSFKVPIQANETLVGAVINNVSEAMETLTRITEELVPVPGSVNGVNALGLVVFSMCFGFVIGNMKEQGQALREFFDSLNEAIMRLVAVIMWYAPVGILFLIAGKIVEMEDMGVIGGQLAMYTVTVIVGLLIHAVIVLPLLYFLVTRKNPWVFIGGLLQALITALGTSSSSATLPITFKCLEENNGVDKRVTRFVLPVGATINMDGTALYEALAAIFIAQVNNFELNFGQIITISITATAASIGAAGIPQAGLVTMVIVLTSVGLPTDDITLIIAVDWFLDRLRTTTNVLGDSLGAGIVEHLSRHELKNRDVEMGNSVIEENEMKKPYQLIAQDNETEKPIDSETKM

EAAT3 = target: T2, EAAT3 (Homo sapiens, UniProt P43005); test: glutamate uptake mediated by EAAT3-expressing COS-7 cells; format: cell-based; settings: for EAAT3 EC50 (nM): top number of the cell
T2 construct: expressed in transfected cells; host or cells: COS-7
T2 sequence (P43005 1-524): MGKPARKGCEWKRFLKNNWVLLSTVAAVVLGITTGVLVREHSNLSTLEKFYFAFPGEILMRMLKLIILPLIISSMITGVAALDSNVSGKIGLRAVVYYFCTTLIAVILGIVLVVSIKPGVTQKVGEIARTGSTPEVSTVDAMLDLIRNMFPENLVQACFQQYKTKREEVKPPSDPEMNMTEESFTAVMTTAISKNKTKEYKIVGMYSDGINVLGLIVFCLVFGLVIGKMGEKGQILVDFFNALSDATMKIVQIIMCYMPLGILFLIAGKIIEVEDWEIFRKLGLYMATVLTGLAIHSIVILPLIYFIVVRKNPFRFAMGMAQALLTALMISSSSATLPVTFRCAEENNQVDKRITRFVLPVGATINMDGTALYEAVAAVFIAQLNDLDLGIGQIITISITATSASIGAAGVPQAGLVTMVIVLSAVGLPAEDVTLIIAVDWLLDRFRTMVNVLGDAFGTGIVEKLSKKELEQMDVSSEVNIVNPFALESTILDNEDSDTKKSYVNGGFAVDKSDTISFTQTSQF

EAAT2 [1] = target: T3, EAAT2 (Homo sapiens, UniProt P43004); test: glutamate uptake mediated by EAAT2-expressing COS-7 cells; settings: for EAAT2 Efficacy: bottom number of the cell
T3 sequence (P43004 whole entry, the tested form may be a part): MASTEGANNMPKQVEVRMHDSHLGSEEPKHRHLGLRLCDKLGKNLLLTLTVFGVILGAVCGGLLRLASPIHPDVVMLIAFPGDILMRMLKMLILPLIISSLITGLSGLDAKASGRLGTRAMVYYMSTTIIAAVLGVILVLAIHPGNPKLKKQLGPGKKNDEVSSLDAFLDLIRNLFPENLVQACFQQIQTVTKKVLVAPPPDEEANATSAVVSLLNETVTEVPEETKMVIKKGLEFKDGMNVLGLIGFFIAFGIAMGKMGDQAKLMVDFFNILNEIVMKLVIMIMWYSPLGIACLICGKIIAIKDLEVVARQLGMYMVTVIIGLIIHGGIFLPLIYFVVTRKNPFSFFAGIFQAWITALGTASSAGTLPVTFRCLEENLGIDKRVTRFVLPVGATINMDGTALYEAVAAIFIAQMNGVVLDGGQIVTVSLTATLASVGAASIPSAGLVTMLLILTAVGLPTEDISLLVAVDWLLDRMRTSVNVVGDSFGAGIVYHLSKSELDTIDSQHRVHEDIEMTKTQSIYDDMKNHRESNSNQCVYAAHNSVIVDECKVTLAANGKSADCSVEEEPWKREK

EAAT2 [2] = target: T3, EAAT2; test: kinetic analysis of L-glutamate uptake in EAAT2-transfected COS-7 cells; format: cell-based; set-up: expressed in transfected cells; host or cells: COS-7; settings: compound 10 nM, different concentrations of glutamate
cortical neurons [3] = test: neuroprotection in neuronal cultures, bi-laminar approach, L-glutamate insult; format: cell-based; settings: 10 μM L-glutamate for 24 h
Method: (§1) Top: Representative images (40× magnification) of 14 DIV cortical neurons in control conditions (FIG. 2A) or subjected to insult with 10 μM L-glutamate for 24 h (FIG. 2B). […] Bottom: Representative images of cortical neurons in control conditions (FIG. 2D) or subjected to insult with OGD for 20 min (FIG. 2E). […] Quantification performed 24 h after treatments in cultures stained for MAP-2 (green) and DAPI (blue). Surviving neurons were estimated by blind counting of 10 fields/coverslips, averages of triplicate determinations±SD (ANOVA followed by Dunnet's posthoc test, *p<0.05, **<0.01, p***<0.001, compared to control, #p<0.05, ###p<0.001, compared to insult).

cortical neurons [4] = test: neuroprotection in neuronal cultures, bi-laminar approach, OGD insult; format: cell-based; settings: OGD for 20 min
Method: as §1

[5] = pilocarpine in vivo model of epilepsy; settings: osmotic pump 48 hours, final dose 4 mg/Kg, after pilocarpine 380 mg/Kg; p=0.0189
[6] = SNL (spinal nerve ligation) model; settings: p<0.01 compared to vehicle
glia cells = settings: for Km / Vmax: Glia
neuron-glia cultures = test: neuroprotection in mixed neuron-glia cultures; format: cell-based, rat
Excerpt: Immunostaining against neuronal marker MAP-2 (green), glial maker GFAP (red), and nuclear marker DAPI (blue). Surviving neurons were estimated by blind counting of 10 fields/coverslips, averages of triplicate determinations±SD (ANOVA followed by Dunnet's posthoc test, ***p<0.001, compared to control, ###p<0.001, compared to insult). FIGS. 7A-7E show the in vitro neuroprotective properties of second and third generation compounds after glutamate and oxygen glucose deprivation insults in mixed neuron/glia cultures. […] Immunostaining against neuronal marker MAP-2 (green), glial maker GFAP (red), and nuclear marker DAPI (blue). Images taken with 30× magnification with a confocal microscope.

In the case of `CN1CCN(C(c2ccc(O)nc2)c2nnnn2CCc2ccccc2)CC1` (centres unmarked) [VY-3-286, 5-((4-methylpiperazin-1-yl)(1-phenethyl-1H-tetrazol-5-yl)methyl)pyridin-2-ol], the “EAAT1 Efficacy” value (EAAT1) is reported as 160.25 ± 27.22% and the “EAAT3 Efficacy” value (EAAT3; bottom number of the cell) is reported as 130.50 ± 2.12%.

For `CN1CCN(C(c2ccc(F)nc2)c2nnnn2CCc2ccccc2)CC1` (centres unmarked) [VY-3-285, 1-((6-fluoropyridin-3-yl)(1-phenethyl-1H-tetrazol-5-yl)methyl)-4-methylpiperazine], the “EAAT1 Efficacy” value (EAAT1) was 2.75 ± 3.18 222 ± 55.72%.

For `CN1CCN(C(c2ccncc2)c2nnnn2CCc2ccccc2)CC1` (centres unmarked) [DA-058, 1-methyl-4-((1-phenethyl-1H-tetrazol-5-yl)(pyridin-4-yl)methyl)piperazine], the EC50 (EAAT2 [1]) was 0.4 ± 0.42 nM, the “EAAT2 Efficacy” value (EAAT2 [1]) was 200.50 ± 58.60% and the “EAAT1 Efficacy” value (EAAT1) was 186.0 ± 41.01%. The EC50 (EAAT1; top number of the cell) was 2.24 ± 1.07 nM and the “EAAT3 EC50 (nM)” value (EAAT3) was “No Effect”.

For `CN1CCN(C(c2cccnc2)c2nnnn2CCc2ccccc2)CC1` (centres unmarked) [DA-023, 1-methyl-4-((1-phenethyl-1H-tetrazol-5-yl)(pyridin-3-yl)methyl)piperazine], the “effect on KM (affinity for the substrate)” value (EAAT2 [2]) was “no effect on KM”, the “effect on Vmax (in words)” value (EAAT2 [2]) was “increase in Vmax” and the “potency on transport augmentation (dose response curve)” value (EAAT2 [1]; EAAT2-expressing COS-7 cells) was “nM range”. The “efficacy on transport augmentation” value (EAAT2 [1]; EAAT2-expressing COS-7 cells, dose response curve) was under 150%, the “cell death / surviving neurons” value (cortical neurons [3]; compound 10 nM) was “attenuate cell death” and the “cell death / surviving neurons” value (cortical neurons [4]; compound 100 nM) was “attenuated cell death”. The “neuronal death (FJC+ cell numbers) in the hilus” value [5] was “significant reduction in the neuronal death”.

For `CN1CCN(C(C(=O)NCCc2ccc(F)cc2)c2cccnc2)CC1` (centres unmarked) [NA-005, N-(4-fluorophenethyl)-2-(4-methylpiperazin-1-yl)-2-(pyridin-3-yl)acetamide], the “EAAT1 Efficacy” value (EAAT1) was 189 ± 9.89%.

For `CN1CCN(C(C(=O)NCCc2ccc(F)cc2)c2ccc(C#N)cc2)CC1` (centres unmarked) [NA-014, 2-(4-cyanophenyl)-N-(4-fluorophenethyl)-2-(4-methylpiperazin-1-yl)acetamide], the analgesic response ([6]; 10 mg/kg) was “analgesic response”, the “EAAT1 EC50 (nM)” value (EAAT1; top number of the cell) was “No Effect” and the Km (glia cells; NA-014 100 nM) was 52.5 ± 5.82 µM. The Vmax (glia cells; NA-014 100 nM) was 42.35 ± 1.44 pmol/well/min, the Km (glia cells; NA-014 500 nM) was 49.8 ± 8.3 µM and the Vmax (glia cells; NA-014 500 nM) was 72.76 ± 3.67 pmol/well/min. For the same molecule, the “KM versus vehicle (in words)” value (glia cells; cultured glia cells pre-incubated with 100 nM and 500 nM) was “not statistically different”, the neuronal survival (neuron-glia cultures; 100 μM L-glutamate for 24 h, co-treatment with 100 nM compound) was “neuroprotective effect” and the “neuronal survival with co-application of EAAT inhibitor TBOA” value (neuron-glia cultures; L-glutamate insult, compound plus TBOA) was “abolished by co-application of EAAT inhibitor TBOA”. For the same molecule, the “EAAT3 EC50 (nM)” value (EAAT3) was “No Effect”.

In the case of `NC(CCCP(=O)(O)O)C(=O)O` (racemic) [APV, (DL)-2-amino-5-phosphonovaleric acid, reference compound], the “cell death / surviving neurons” value (cortical neurons [3]; compound 100 μM) is reported as “attenuate cell death” and the “cell death / surviving neurons” value (cortical neurons [4]; compound 100 μM) is reported as “attenuated cell death”.

For `COc1ccc2[nH]c(=O)c(C(c3nnnn3CCc3ccccc3)N3CCN(C4CCCCC4)CC3)cc2c1` (centres unmarked) [GT949], the “cell death / surviving neurons” value (cortical neurons [3]; compound 10 nM) was “attenuate cell death”.

With `COc1ccc(C(c2nnnn2CCc2ccccc2)N2CCN(C3CCCCC3)CC2)cc1OC` (centres unmarked) [DA-050, 1-cyclohexyl-4-((3,4-dimethoxyphenyl)(1-phenethyl-1H-tetrazol-5-yl)methyl)piperazine] the EC50 (EAAT2 [1]) was 0.5 ± 0.56 nM, the “EAAT2 Efficacy” value (EAAT2 [1]) was 261.50 ± 40.30% and the “EAAT1 Efficacy” value (EAAT1) was 150.00 ± 21.21%. The EC50 (EAAT1; top number of the cell) was 46 ± 36.8 nM and the “EAAT3 EC50 (nM)” value (EAAT3) was “No Effect”.

For `NCC1(CC(=O)O)CCCCC1` [Gabapentin, reference compound], the analgesic response ([6]; 200 mg/kg) was “analgesic response”.
